# Results taken from patent publication US20200017495A1, “NOVEL HETEROCYCLIC COMPOUNDS AND THEIR USE IN PREVENTING OR TREATING BACTERIAL INFECTIONS” (priority 2017, published 2020).
# Where two headings read alike, the source gives them in different places.
# Key:
# Assay in all cases: MIC of compounds alone and combined with antibacterials, broth microdilution (CLSI)
# Assay type in all cases: cell-based
# [1] = test system: Citrobacter freundii (CFR) isolates; conditions: Citrobacter freundii
# Method in brief: (§1)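 Log-phase isolates were inoculated at a final 5.10^5 CFU/mL in cation-adjusted Mueller-Hinton broth and incubated 16-20 h at 35° C in ambient air. MIC was the lowest concentration preventing visible growth; for combinations, the antibacterial MIC was read at each compound concentration.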
# [2] = test system: Klebsiella pneumoniae (KPN) isolates; conditions: Klebsiella pneumoniae
# Method in brief: as §1
# [3] = test system: Morganella morganii (MMO) isolates; conditions: Morganella morganii
# Method in brief: as §1
structure (smiles),measurement,setting,value
"C=CC1=C(C(=O)O)N2C(=O)[C@@H](NC(=O)/C(=N\O)c3csc(N)n3)[C@H]2SC1 [CDR, Cefdinir]",MIC,"[1]; strain CFR UFR10, genotype OXA-48",> 256 µg/mL
same,MIC,"[1]; strain CFR UFR11, genotype TEM-1, OXA-1, OXA-48",> 256 µg/mL
same,MIC,"[1]; strain CFR UFR83, genotype TEM-3, AmpC",> 256 µg/mL
same,MIC,"[1]; strain CFR UFR146, genotype TEM-1, KPC-2, read-out: MIC",256 µg/mL
same,MIC,"[1]; strain CFR UFR248, genotype CTX-M-15",> 256 µg/mL
same,MIC,"[1]; strain CFR UFR249, genotype TEM-1, CTX-M-15",> 256 µg/mL
same,MIC,"[1]; strain CFR UFR250, genotype TEM-1, SHV-28, CTX-M-15",> 256 µg/mL
same,MIC,"[1]; strain CFR UFR253, genotype TEM-1, SHV-12, OXA-48",> 256 µg/mL
same,MIC,"[1]; strain CFR UFR254, genotype VEB-1b, OXA-48, qnrA, read-out: MIC",256 µg/mL
same,MIC,"[2]; BAA1898, strain KPN BAA-1898, genotype TEM-1, SHV-11, SHV-12, KPC-2",> 256 µg/mL
same,MIC,"[2]; strain KPN 6299, genotype TEM-1, SHV-11, OXA-163, read-out: MIC",256 µg/mL
same,MIC,"[2]; strain KPN 110376, genotype TEM-1, SHV-1, CTX-M-15, OXA-1, OXA-48",> 256 µg/mL
same,MIC,"[2]; strain KPN 131119, genotype TEM-1, SHV-11, CTX-M-15, OXA-1, OXA-48",> 256 µg/mL
same,MIC,"[2]; strain KPN 140513, genotype TEM-1, SHV-11, CTX-M-15, KPC-3",> 256 µg/mL
same,MIC,"[2]; strain KPN 160143, genotype TEM-1, SHV-1, CTX-M-15, KPC-2, OXA-1",> 256 µg/mL
same,MIC,"[2]; strain KPN 190128, genotype TEM-1, SHV-32, CTX-M-15, OXA-1",> 256 µg/mL
same,MIC,"[2]; strain KPN 190270, genotype TEM-1, SHV-76, CTX-M-15, OXA-1",> 256 µg/mL
same,MIC,"[2]; strain KPN 190425, genotype TEM-1, SHV-1, CTX-M-15, OXA-1",> 256 µg/mL
same,MIC,"[2]; strain KPN 190551, genotype TEM-1, SHV-1, CTX-M-15, OXA-1",> 256 µg/mL
same,MIC,"[2]; strain KPN 200047, genotype TEM-1, SHV-32, CTX-M-15, OXA-1",> 256 µg/mL
same,MIC,"[2]; strain KPN 200327, genotype TEM-1, SHV-1, CTX-M-15, OXA-1",> 256 µg/mL
same,MIC,"[2]; strain KPN 260251, genotype TEM-1, SHV-11, SHV-12, CTX-M-15, KPC-2",> 256 µg/mL
same,MIC,"[2]; strain KPN 260252, genotype TEM-1, SHV-11, KPC-3",> 256 µg/mL
same,MIC,"[2]; strain KPN 260376, genotype SHV-1, SHV-49, OXA-1",> 256 µg/mL
same,MIC,"[2]; strain KPN 270077, genotype TEM-1, SHV-1, CTX-M-15",> 256 µg/mL
same,MIC,"[2]; strain KPN 700603, genotype SHV-18, OXA-2, read-out: MIC",4 µg/mL
same,MIC,"[2]; strain KPN ARA, genotype TEM-1, SHV-11, CTX-M-15, OXA-1, OXA-48",> 256 µg/mL
same,MIC,"[2]; strain KPN LIB, genotype SHV-11, OXA-48",> 256 µg/mL
same,MIC,"[2]; strain KPN UFR22_O, genotype TEM-1, SHV-1, OXA-48",> 256 µg/mL
same,MIC,"[2]; strain KPN UFR23, genotype TEM-1, SHV-1, OXA-48",> 256 µg/mL
same,MIC,"[2]; strain KPN UFR24, genotype TEM-1, SHV-2, SHV-11, OXA-1, OXA-48, OXA-47",> 256 µg/mL
same,MIC,"[2]; strain KPN UFR25, genotype TEM-1, SHV-11, CTX-M-15, OXA-162",> 256 µg/mL
same,MIC,"[2]; strain KPN UFR27, genotype TEM-1, SHV-28, CTX-M-15, OXA-204",> 256 µg/mL
same,MIC,"[2]; strain KPN UFR28, genotype TEM-1, SHV-1, CTX-M-15, OXA-1, OXA-232",> 256 µg/mL
same,MIC,"[2]; strain KPN UFR65, genotype TEM-1, SHV-11, KPC-2",> 256 µg/mL
same,MIC,"[2]; strain KPN UFR66, genotype TEM-1, SHV-11, CTX-M-15, KPC-2",> 256 µg/mL
same,MIC,"[2]; strain KPN UFR67, genotype TEM-1, SHV-11, KPC-3",> 256 µg/mL
same,MIC,"[2]; strain KPN UFR68, genotype TEM-1, SHV-11, CTX-M-15, KPC-3",> 256 µg/mL
same,MIC,"[2]; strain KPN UFR76, genotype TEM-155, SHV-11, ACT-1, OXA-2",> 256 µg/mL
same,MIC,"[2]; strain KPN UFR77, genotype CMY-2, read-out: MIC",64 µg/mL
same,MIC,"[2]; strain KPN UFR78, genotype TEM-1, SHV-1, CTX-M-15, CMY-2, OXA-1, OXA-48",> 256 µg/mL
same,MIC,"[2]; strain KPN UFR79, genotype DHA-1, OXA-1, read-out: MIC",256 µg/mL
same,MIC,"[2]; strain KPN UFR80, genotype SHV-11, DHA-1, OXA-1, read-out: MIC",1 µg/mL
same,MIC,"[2]; strain KPN UFR81, genotype TEM-1, SHV-1, DHA-1, OXA-48",> 256 µg/mL
same,MIC,"[2]; strain KPN UFR215, genotype SHV-27, CTX-M-15",> 256 µg/mL
same,MIC,"[2]; strain KPN UFR216, genotype SHV-28, CTX-M-15",> 256 µg/mL
same,MIC,"[2]; strain KPN UFR217, genotype TEM-1, SHV-1, CTX-M-15",> 256 µg/mL
same,MIC,"[2]; strain KPN UFR219, genotype SHV-12, CTX-M-15",> 256 µg/mL
same,MIC,"[2]; strain KPN UFR220, genotype TEM-1, SHV-12, DHA-1",> 256 µg/mL
same,MIC,"[2]; strain KPN UFR221, genotype TEM-1, SHV-11, CTX-M-14, DHA-1, read-out: MIC",128 µg/mL
same,MIC,"[2]; strain KPN UFR222, genotype DHA-2",> 256 µg/mL
same,MIC,"[2]; strain KPN UFR227O, genotype TEM-x, SHV-x, CTX-M-x",> 256 µg/mL
same,MIC,[3],> 256 µg/mL
same,MIC,"[3]; strain MMO 200321, genotype TEM-1, CTX-M-15, OXA-1, read-out: MIC",256 µg/mL
same,MIC,"[3]; strain MMO UFR144, genotype TEM-1, CTX-M-15, read-out: MIC",128 µg/mL
same,MIC,"[3]; strain MMO UFR240, genotype CTX-M-9, read-out: MIC",64 µg/mL
same,MIC,"[3]; strain MMO UFR241, genotype TEM-1, CTX-M-15, read-out: MIC",128 µg/mL
same,MIC,"[3]; strain MMO UFR243, genotype DHA-1, read-out: MIC",64 µg/mL
same,MIC,"[3]; strain MMO UFR244, genotype DHA-1, read-out: MIC",32 µg/mL
same,MIC,"[3]; strain MMO UFR245, genotype DHA-1, read-out: MIC",64 µg/mL
same,MIC,"[3]; strain MMO UFR246, genotype DHA-1, read-out: MIC",64 µg/mL
same,MIC,"[3]; strain MMO UFR247, genotype DHA-1, read-out: MIC",128 µg/mL
